Results from US12678413B2, “Compositions containing pterosin compound and derivatives thereof active ingredients for prevention or treatment of degenerative brain diseases” (priority 2017, dated 2026).

Biological target: T1, acetylcholinesterase (AChE) (Electrophorus electricus, UniProt O42275)
T1 construct: purchased Sigma-Aldrich Co. (St. Louis, MO, USA)
Assay: AChE enzyme kinetics (Dixon plot and Lineweaver plot)
Type: biochemical
Settings: not given
Procedure: (§1) The reaction started with the addition of 10 μL of DTNB and 10 μL of Ach or Bch.
(§2) Briefly, the basis for this assay is the hydrolysis of acetylthiocholine by acetylcholinesterase, producing thiocholine that reacts with DTNB. […] Degrees of inhibition were calculated according to […] wherein E and S represent enzyme activities in the presence and absence of a test sample, respectively.

T1 sequence (O42275 24-633): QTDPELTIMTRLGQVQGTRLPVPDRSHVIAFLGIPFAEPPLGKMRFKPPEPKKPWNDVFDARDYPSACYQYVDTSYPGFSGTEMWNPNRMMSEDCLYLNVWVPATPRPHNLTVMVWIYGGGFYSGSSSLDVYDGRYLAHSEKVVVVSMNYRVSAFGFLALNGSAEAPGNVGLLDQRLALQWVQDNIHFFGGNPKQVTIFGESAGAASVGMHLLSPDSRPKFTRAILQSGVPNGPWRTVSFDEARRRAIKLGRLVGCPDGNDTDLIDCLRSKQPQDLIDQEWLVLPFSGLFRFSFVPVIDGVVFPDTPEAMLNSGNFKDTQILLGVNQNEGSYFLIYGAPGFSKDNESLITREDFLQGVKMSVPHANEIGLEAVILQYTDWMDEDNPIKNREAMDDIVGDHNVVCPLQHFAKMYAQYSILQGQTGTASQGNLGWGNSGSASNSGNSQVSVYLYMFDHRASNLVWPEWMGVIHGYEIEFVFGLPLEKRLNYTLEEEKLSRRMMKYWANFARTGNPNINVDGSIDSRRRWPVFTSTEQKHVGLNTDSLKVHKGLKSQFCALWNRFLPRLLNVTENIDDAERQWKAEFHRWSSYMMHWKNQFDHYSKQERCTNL

Row | SMILES | Inhibition type Acetylcholinesterase | Ki
1 | Cc1cc2c(c(C)c1CCO)C(=O)[C@@H](C)[C@H]2O [Compound 8, (2S,3R)-pterosin C] | mixed type | 16.3 µM
2 | Cc1cc2c(c(C)c1CCO[C@@H]1OC(CO)[C@@H](O)[C@H](O)C1O)C(=O)[C@H](C)C2 (stereo partly drawn) [Compound 14, (2R)-pteroside B] | mixed type | –

Same assay, conditions: listed as (2R)-Pteroside B

Row | SMILES | Inhibition type Acetylcholinesterase
3 | Cc1cc2c(c(C)c1CCO[C@@H]1OC(CO)[C@@H](O)[C@H](O)C1O)C(=O)[C@H](C)C2 (stereo partly drawn) [Compound 14, (2R)-pteroside B] | Mixed-type

Same assay, conditions: listed as (2S,3R)-Pterosin C

Row | SMILES | Inhibition type Acetylcholinesterase
4 | Cc1cc2c(c(C)c1CCO)C(=O)[C@@H](C)[C@H]2O [Compound 8, (2S,3R)-pterosin C] | Mixed-type

Biological target: T2, BACE1 (Homo sapiens, UniProt P56817)
T2 construct: purchased Pan Vera Co. (Madison, WI, USA)
Assay: BACE1 enzyme kinetics (Dixon plot and Lineweaver plot)
Type: biochemical
Settings: not given
Procedure: A BACE1 fluorescence resonance energy transfer (FRET) assay kit (β-secretase, recombinant human enzyme) was purchased from Pan Vera Co. (Madison, WI, USA). The assay was carried out according to the manual provided, with a modification made thereto as described by Jung et al. (Jung et al., Biol Pharm Bull, 2010, 33:267-272). Quercetin was used as a positive control.
In addition, an enzyme kinetics experiment was conducted using the Lineweaver plot and Dixon plot (see FIG. 7) in order to examine the BACE1 inhibition mechanism of the novel compound (Compound 2). […] The results of the experiment indicate that the novel compound of the present disclosure is a very potent inhibitor against BACE1.

T2 sequence (P56817 46-501): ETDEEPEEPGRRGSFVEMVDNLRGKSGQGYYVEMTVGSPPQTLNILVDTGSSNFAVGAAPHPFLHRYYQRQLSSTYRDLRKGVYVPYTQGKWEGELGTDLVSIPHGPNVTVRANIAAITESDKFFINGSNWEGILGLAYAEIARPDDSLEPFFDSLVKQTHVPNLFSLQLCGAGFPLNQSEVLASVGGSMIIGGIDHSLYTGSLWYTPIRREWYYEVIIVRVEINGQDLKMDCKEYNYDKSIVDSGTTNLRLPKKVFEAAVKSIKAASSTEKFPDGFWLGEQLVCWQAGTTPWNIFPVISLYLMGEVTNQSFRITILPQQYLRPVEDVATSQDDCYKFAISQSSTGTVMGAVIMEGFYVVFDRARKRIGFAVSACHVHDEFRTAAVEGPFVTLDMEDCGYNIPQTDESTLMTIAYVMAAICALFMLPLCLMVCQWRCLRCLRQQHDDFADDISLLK

Row | SMILES | Inhibition type BACE1 | Ki
5 | Cc1cc2c(c(C)c1CCO)C(=O)[C@@H](C)[C@H]2O [Compound 8, (2S,3R)-pterosin C] | noncompetitive type | 33.8 µM
6 | Cc1cc2c(c(C)c1CCO[C@@H]1OC(CO)[C@@H](O)[C@H](O)C1O)C(=O)[C@H](C)C2 (stereo partly drawn) [Compound 14, (2R)-pteroside B] | noncompetitive type | 72.5 µM
7 | Cc1cc2c(c(C)c1CCO[C@@H]1OC(CO)[C@@H](O)[C@H](O)C1O)C(=O)[C@H](C)[C@H]2O (stereo partly drawn) [Compound 16, (2R,3R)-pteroside C] | mixed type | 12.6 µM
8 | Cc1cc2c(c(C)c1CCO[C@@H]1OC(CO)[C@@H](O)[C@H](O)C1O)C(=O)C(C)(C)[C@H]2O (stereo partly drawn) [Compound 17, (3S)-pteroside D] | mixed type | 16.5 µM

Same assay, conditions: listed as (2R)-Pteroside B

Row | SMILES | Inhibition type BACE1
9 | Cc1cc2c(c(C)c1CCO[C@@H]1OC(CO)[C@@H](O)[C@H](O)C1O)C(=O)[C@H](C)C2 (stereo partly drawn) [Compound 14, (2R)-pteroside B] | Noncompetitive

Same assay, conditions: listed as (2R,3R)-Pteroside C

Row | SMILES | Inhibition type BACE1
10 | Cc1cc2c(c(C)c1CCO[C@@H]1OC(CO)[C@@H](O)[C@H](O)C1O)C(=O)[C@H](C)[C@H]2O (stereo partly drawn) [Compound 16, (2R,3R)-pteroside C] | Mixed-type

Same assay, conditions: listed as (2S,3R)-Pterosin C

Row | SMILES | Inhibition type BACE1
11 | Cc1cc2c(c(C)c1CCO)C(=O)[C@@H](C)[C@H]2O [Compound 8, (2S,3R)-pterosin C] | Noncompetitive

Same assay, conditions: listed as (3S)-Pteroside D

Row | SMILES | Inhibition type BACE1
12 | Cc1cc2c(c(C)c1CCO[C@@H]1OC(CO)[C@@H](O)[C@H](O)C1O)C(=O)C(C)(C)[C@H]2O (stereo partly drawn) [Compound 17, (3S)-pteroside D] | Mixed-type

Biological target: T3, BACE1 (β-secretase, recombinant human enzyme) (Homo sapiens, UniProt P56817)
T3 construct: purchased Pan Vera Co. (Madison, WI, USA)
Assay: In vitro BACE1 activity assay (FRET kit)
Type: biochemical
Settings: compounds in 10% DMSO, concentrations up to 125 μM
Text: BACE1 (beta-secretase) FRET assay kit was purchased from Pan Vera Co. (Madison, WI, USA). All the chemicals and solvents used in column chromatography were of reagent grade and were used as received without further purification.
A BACE1 fluorescence resonance energy transfer (FRET) assay kit (β-secretase, recombinant human enzyme) was purchased from Pan Vera Co. (Madison, WI, USA).
BACE1 is an enzyme promotive of the production of β-amyloid, which destroys neurons. In order to examine the effects on the compounds of Table 1 on the activity of BACE1, IC(inhibition concentrations)50 values were determined by measuring BACE1 activity in vitro according to Experimental Methods.

T3 sequence (P56817 46-501): as above

Row | SMILES | IC50
13 | Cc1cc2c(c(C)c1CCO[C@@H]1OC(CO)[C@@H](O)[C@H](O)C1O)C(=O)[C@H](C)C2 (stereo partly drawn) [Compound 14, (2R)-pteroside B] | 43.4 ± 3 µM
14 | Cc1cc2c(c(C)c1CCO[C@@H]1OC(CO)[C@@H](O)[C@H](O)C1O)C(=O)[C@H](C)[C@H]2O (stereo partly drawn) [Compound 16, (2R,3R)-pteroside C] | 9.74 ± 1.9 µM
15 | Cc1cc2c(c(C)c1CCO[C@@H]1OC(CO)[C@@H](O)[C@H](O)C1O)C(=O)C(C)(C)[C@H]2O (stereo partly drawn) [Compound 17, (3S)-pteroside D] | 10.7 ± 1.5 µM

System: B16F10 cells
Assay: MTT cytotoxicity assay, cancerous cell line B16F10
Type: cell-based
Settings: B16F10 mouse melanoma, 48 hours incubation
Procedure: (§3) The normal cell line NIH3T3 (mouse embryo fibroblast cell-line) and the cancerous cell line B16F10 (mouse melanoma cell-line) were separately grown in 96-well plates and incubated for 48 hours with predetermined concentrations of each of the compounds. After additional incubation with MTT, absorbance at 550 nm was read using a microplate reader. Absorbance is an index accounting for a number of viable cells and was used to calculate cell proliferation rates according to the following formula. All experiments were conducted three times for reproducibility. Cell proliferation rate (%)=OD550(sample)/OD550(control)
(§4) Then, LD50 (Lethal Dose 50) values were calculated on the basis of changes in the cell proliferation rate.

Row | SMILES | LD50 Cancer cell B16F10
16 | Cc1cc2c(c(C)c1CCO)C(=O)[C@@H](C)[C@H]2O [Compound 8, (2S,3R)-pterosin C] | >5,000 μM
17 | Cc1cc2c(c(C)c1CCO[C@@H]1OC(CO)[C@@H](O)[C@H](O)C1O)C(=O)[C@H](C)C2 (stereo partly drawn) [Compound 14, (2R)-pteroside B] | >5,000 μM
18 | Cc1cc2c(c(C)c1CCO[C@@H]1OC(CO)[C@@H](O)[C@H](O)C1O)C(=O)[C@H](C)[C@H]2O (stereo partly drawn) [Compound 16, (2R,3R)-pteroside C] | >5,000 μM
19 | Cc1cc2c(c(C)c1CCO[C@@H]1OC(CO)[C@@H](O)[C@H](O)C1O)C(=O)C(C)(C)[C@H]2O (stereo partly drawn) [Compound 17, (3S)-pteroside D] | >5,000 μM

Biological target: T1, acetylcholinesterase (AChE)
Assay: In vitro cholinesterase activity assay (Ellman), AChE
Type: biochemical
Settings: concentrations up to 125 μM; Mean ± SEM; read-out: IC50 Acetylcholine Esterase Mean ± SEM
Procedure: as §1, §2
(§5) The compounds of Table 1 were evaluated for anti-Alzheimer activity. In this regard, inhibitory activity against AChE (acetylcholinesterase) and BChE (butyrylcholinesterase), which lyse acetylcholine in the central nervous system, was measured according to the Experimental Method to calculate IC(inhibition concentrations)50 values.

Row | SMILES | IC50
20 | Cc1cc2c(c(C)c1CCO)C(=O)[C@@H](C)[C@H]2O [Compound 8, (2S,3R)-pterosin C] | 12.8 ± 0.79 µM

Same assay, conditions: ratio of IC50 BChE/AChE

Row | SMILES | SI: selectivity index (BChE/AChE)
21 | Cc1cc2c(c(C)c1CCO)C(=O)[C@@H](C)[C@H]2O [Compound 8, (2S,3R)-pterosin C] | 3.5
22 | Cc1cc2c(c(C)c1CCO[C@@H]1OC(CO)[C@@H](O)[C@H](O)C1O)C(=O)[C@H](C)C2 (stereo partly drawn) [Compound 14, (2R)-pteroside B] | 6.9
23 | Cc1cc2c(c(C)c1CCO[C@@H]1OC(CO)[C@@H](O)[C@H](O)C1O)C(=O)[C@H](C)[C@H]2O (stereo partly drawn) [Compound 16, (2R,3R)-pteroside C] | 1.4
24 | Cc1cc2c(c(C)c1CCO[C@@H]1OC(CO)[C@@H](O)[C@H](O)C1O)C(=O)C(C)(C)[C@H]2O (stereo partly drawn) [Compound 17, (3S)-pteroside D] | 0.70

System: NIH3T3 cells
Assay: MTT cytotoxicity assay, normal cell line NIH3T3
Type: cell-based
Settings: NIH3T3 mouse embryo fibroblast, 48 hours incubation
Procedure: as §3, §4

Row | SMILES | LD50 Normal cell NIH3T3
25 | Cc1cc2c(c(C)c1CCO)C(=O)[C@@H](C)[C@H]2O [Compound 8, (2S,3R)-pterosin C] | >5,000 μM
26 | Cc1cc2c(c(C)c1CCO[C@@H]1OC(CO)[C@@H](O)[C@H](O)C1O)C(=O)[C@H](C)C2 (stereo partly drawn) [Compound 14, (2R)-pteroside B] | >5,000 μM
27 | Cc1cc2c(c(C)c1CCO[C@@H]1OC(CO)[C@@H](O)[C@H](O)C1O)C(=O)[C@H](C)[C@H]2O (stereo partly drawn) [Compound 16, (2R,3R)-pteroside C] | >5,000 μM
28 | Cc1cc2c(c(C)c1CCO[C@@H]1OC(CO)[C@@H](O)[C@H](O)C1O)C(=O)C(C)(C)[C@H]2O (stereo partly drawn) [Compound 17, (3S)-pteroside D] | >5,000 μM

Biological target: T4, butyrylcholinesterase (BChE) (Equus caballus, UniProt P81908)
T4 construct: horse serum butyrylcholinesterase (BChE, EC3.1.1.8); purchased Sigma-Aldrich Co. (St. Louis, MO, USA); host or cells: horse serum
Assay: BChE enzyme kinetics (Dixon plot and Lineweaver plot)
Type: biochemical
Settings: not given
Procedure: as §1, §2

T4 sequence (P81908 whole entry): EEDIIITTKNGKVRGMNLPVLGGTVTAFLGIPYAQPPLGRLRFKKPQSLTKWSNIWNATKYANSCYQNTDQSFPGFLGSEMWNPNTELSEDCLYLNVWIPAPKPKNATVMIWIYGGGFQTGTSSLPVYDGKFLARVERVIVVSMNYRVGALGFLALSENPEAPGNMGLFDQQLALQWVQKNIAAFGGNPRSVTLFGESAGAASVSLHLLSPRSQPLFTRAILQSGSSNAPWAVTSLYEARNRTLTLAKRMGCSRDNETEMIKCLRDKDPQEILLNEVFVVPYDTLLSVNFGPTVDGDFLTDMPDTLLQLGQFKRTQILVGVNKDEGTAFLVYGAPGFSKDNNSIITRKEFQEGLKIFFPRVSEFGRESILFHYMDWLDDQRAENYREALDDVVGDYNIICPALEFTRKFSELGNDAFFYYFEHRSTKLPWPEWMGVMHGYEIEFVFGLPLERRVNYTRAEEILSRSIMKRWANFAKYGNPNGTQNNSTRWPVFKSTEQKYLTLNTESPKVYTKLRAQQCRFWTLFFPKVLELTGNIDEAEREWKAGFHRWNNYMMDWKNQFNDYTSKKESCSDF

Row | SMILES | Inhibition type Butyrylcholinesterase | Ki
29 | Cc1cc2c(c(C)c1CCO)C(=O)[C@@H](C)[C@H]2O [Compound 8, (2S,3R)-pterosin C] | noncompetitive type | 29.9 µM
30 | Cc1cc2c(c(C)c1CCO[C@@H]1OC(CO)[C@@H](O)[C@H](O)C1O)C(=O)[C@H](C)C2 (stereo partly drawn) [Compound 14, (2R)-pteroside B] | mixed type | –

Same assay, conditions: listed as (2R)-Pteroside B

Row | SMILES | Inhibition type Butyrylcholinesterase
31 | Cc1cc2c(c(C)c1CCO[C@@H]1OC(CO)[C@@H](O)[C@H](O)C1O)C(=O)[C@H](C)C2 (stereo partly drawn) [Compound 14, (2R)-pteroside B] | Mixed-type

Same assay, conditions: listed as (2S,3R)-Pterosin C

Row | SMILES | Inhibition type Butyrylcholinesterase
32 | Cc1cc2c(c(C)c1CCO)C(=O)[C@@H](C)[C@H]2O [Compound 8, (2S,3R)-pterosin C] | Noncompetitive

Biological target: T4, butyrylcholinesterase (BChE)
Assay: In vitro cholinesterase activity assay (Ellman), BChE
Type: biochemical
Settings: concentrations up to 125 μM; Mean ± SEM; read-out: IC50 Butyrylcholine esterase Mean ± SEM
Procedure: as §1, §2, §5

Row | SMILES | IC50
33 | Cc1cc2c(c(C)c1CCO)C(=O)[C@@H](C)[C@H]2O [Compound 8, (2S,3R)-pterosin C] | 44.3 ± 1 µM
34 | Cc1cc2c(c(C)c1CCO[C@@H]1OC(CO)[C@@H](O)[C@H](O)C1O)C(=O)[C@H](C)C2 (stereo partly drawn) [Compound 14, (2R)-pteroside B] | 17.6 ± 3.1 µM
